Structures can show the parent of a compound that is named as a salt.
Target: T1, human recombinant HPK1 (Homo sapiens, UniProt Q92918)
T1 construct: purchased BPS Bioscience
Experiment: Inhibitory activity against human recombinant HPK1 (TR-FRET)
Type: biochemical
Conditions: ULight-p70S6K peptide, ATP at Km, room temperature, 1 hour, 0.32 to 1000 nM compound
How it was run: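 Recombinant human HPK1 with ULight-p70S6K peptide and ATP at Km, 1 h at room temperature in HEPES pH 7.4 buffer with Mg2+, Mn2+, EGTA, DTT; compounds 0.32–1000 nM final. EDTA stop, Eu-anti-phosphopeptide TR-FRET read (665 nm); IC50 from % inhibition versus DMSO, binned A–D at 10, 50, 100 nM.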

T1 sequence (Q92918 whole entry): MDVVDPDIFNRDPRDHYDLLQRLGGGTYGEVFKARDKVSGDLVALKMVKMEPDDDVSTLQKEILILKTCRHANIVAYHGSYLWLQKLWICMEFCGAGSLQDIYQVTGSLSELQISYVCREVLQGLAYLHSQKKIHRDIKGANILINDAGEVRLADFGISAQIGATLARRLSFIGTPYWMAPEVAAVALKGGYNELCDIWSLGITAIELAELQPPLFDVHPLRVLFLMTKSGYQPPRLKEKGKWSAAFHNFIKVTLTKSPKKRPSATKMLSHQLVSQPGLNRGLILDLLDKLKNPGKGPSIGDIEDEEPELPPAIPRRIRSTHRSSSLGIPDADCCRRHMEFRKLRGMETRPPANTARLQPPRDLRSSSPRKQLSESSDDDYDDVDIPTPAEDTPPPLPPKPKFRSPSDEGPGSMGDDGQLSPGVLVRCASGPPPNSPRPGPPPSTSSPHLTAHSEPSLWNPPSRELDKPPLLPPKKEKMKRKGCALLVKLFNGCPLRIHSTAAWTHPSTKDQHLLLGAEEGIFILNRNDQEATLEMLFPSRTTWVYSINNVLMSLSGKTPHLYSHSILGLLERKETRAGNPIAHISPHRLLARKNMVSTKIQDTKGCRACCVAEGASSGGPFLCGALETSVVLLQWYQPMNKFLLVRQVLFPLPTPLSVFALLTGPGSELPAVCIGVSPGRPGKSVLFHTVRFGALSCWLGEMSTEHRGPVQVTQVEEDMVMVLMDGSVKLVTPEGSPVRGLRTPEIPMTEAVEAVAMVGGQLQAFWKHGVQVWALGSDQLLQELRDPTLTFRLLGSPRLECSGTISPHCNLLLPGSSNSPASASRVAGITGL

Which IC50 does the source give for `COc1cccc(F)c1-c1nc(Nc2cc(N3CCC[C@H](O)C3)c(-c3ccc(C(=O)N4CCC(O)CC4)nc3)cn2)ccc1[N+](=O)[O-]` [Example 54, (6′-((6-(2-fluoro-6-methoxyphenyl)-5-nitropyridin-2-yl)amino)-4′-((S)-3-hydroxypiperidin-1-yl)-[3,3′-bipyridin]-6-yl)(4-hydroxypiperidin-1-yl)methanone] here?
Its IC50 is 10 to 50 nM.

`COc1cccc(F)c1-c1nccc(Nc2cc(N3CCC[C@H](N)C3)c(-c3ccc4c(c3)NC(=O)C(C)O4)cn2)n1` (stereo partly drawn) [Example 270, 6-(4-((S)-3-aminopiperidin-1-yl)-6-((2-(2-fluoro-6-methoxyphenyl)pyrimidin-4-yl)amino)pyridin-3-yl)-2-methyl-2H-benzo[b][1,4]oxazin-3(4H)-one hydrochloride] was tested. Which IC50 did it give?
The IC50 was at most 10 nM.

`COc1cccc(F)c1-c1nc(Nc2cc(N3CCC[C@H](O)C3)c(-c3cnn(C4CCN(C)CC4)c3)cn2)ccc1C#N` [Example 325, 2-(2-fluoro-6-methoxyphenyl)-6-((4-((S)-3-hydroxypiperidin-1-yl)-5-(1-(1-methylpiperidin-4-yl)-1H-pyrazol-4-yl)pyridin-2-yl)amino)nicotinonitrile] was tested. Which IC50 did it give?
The IC50 was at most 10 nM.

For `COc1cccc(F)c1-c1nccc(Nc2cc(N3CCC[C@H](N)C3)c(-c3ccc4c(c3)COC(=O)N4)cn2)n1` [Example 258, (S)-6-(4-(3-aminopiperidin-1-yl)-6-((2-(2-fluoro-6-methoxyphenyl)pyrimidin-4-yl)amino)pyridin-3-yl)-1,4-dihydro-2H-benzo[d][1,3]oxazin-2-one hydrochloride], which IC50 is on record?
The IC50 was at most 10 nM.

`COc1cccc(F)c1-c1nccc(Nc2cc(N3CC[C@H](N)C3)c(-c3cnn(C4CCOCC4)c3)cn2)n1` [Example 97, (S)-N-(4-(3-aminopyrrolidin-1-yl)-5-(1-(tetrahydro-2H-pyran-4-yl)-1H-pyrazol-4-yl)pyridin-2-yl)-2-(2-fluoro-6-methoxyphenyl)pyrimidin-4-amine hydrochloride] was tested. Which IC50 did it give?
The IC50 was at most 10 nM.

How did the IC50 turn out when `COc1cccc(F)c1-c1nccc(Nc2cc(N3CCC[C@H](N)C3)c(-c3ccc4c(c3)CCC(=O)N4C)cn2)n1` [Example 263, (S)-6-(4-(3-aminopiperidin-1-yl)-6-((2-(2-fluoro-6-methoxyphenyl)pyrimidin-4-yl)amino)pyridin-3-yl)-1-methyl-3,4-dihydroquinolin-2(1H)-one hydrochloride] was run?
Its IC50 is at most 10 nM.

Which IC50 does the source give for `COc1cccc(F)c1-c1nccc(Nc2cc(N3CCC[C@@H](C(F)F)C3)c(-c3cnn(C(F)F)c3)cn2)n1` [Example 273, (R)-N-(5-(1-(difluoromethyl)-1H-pyrazol-4-yl)-4-(3-(difluoromethyl)piperidin-1-yl)pyridin-2-yl)-2-(2-fluoro-6-methoxyphenyl)pyrimidin-4-amine] here?
Its IC50 is at most 10 nM.

For `COc1cccc(F)c1-c1nccc(Nc2cc(N3CCC[C@H](N)C3)c(-c3ccc(NC(C)=O)cc3)cn2)n1` [Example 279, (S)-N-(4-(4-(3-aminopiperidin-1-yl)-6-((2-(2-fluoro-6-methoxyphenyl)pyrimidin-4-yl)amino)pyridin-3-yl)phenyl)acetamide hydrochloride], which IC50 is on record?
Its IC50 is at most 10 nM.

For `COc1cccc(F)c1-c1nccc(Nc2cc(N3CCC[C@H](N)C3)c(-c3cc(C)c(OC)c(C)c3)cn2)n1` [Example 285, (S)-N-(4-(3-aminopiperidin-1-yl)-5-(4-methoxy-3,5-dimethylphenyl)pyridin-2-yl)-2-(2-fluoro-6-methoxyphenyl)pyrimidin-4-amine hydrochloride], which IC50 is on record?
The IC50 was at most 10 nM.

For `COc1cccc(F)c1-c1nccc(Nc2cc(N3CCC[C@H](N)C3)c(-c3cnn(CCN(C)C)c3)cn2)n1` [Example 246, (S)-N-(4-(3-aminopiperidin-1-yl)-5-(1-(2-(dimethylamino)ethyl)-1H-pyrazol-4-yl)pyridin-2-yl)-2-(2-fluoro-6-methoxyphenyl)pyrimidin-4-amine hydrochloride], which IC50 is on record?
The IC50 was at most 10 nM.

With `COc1cccc(F)c1-c1nccc(Nc2cc(N3CCC[C@H](N)C3)c(-c3cnn([C@H]4CCOC4)c3)cn2)n1` [Example 298, N-(4-((S)-3-aminopiperidin-1-yl)-5-(1-((S)-tetrahydrofuran-3-yl)-1H-pyrazol-4-yl)pyridin-2-yl)-2-(2-fluoro-6-methoxyphenyl)pyrimidin-4-amine hydrochloride] as the compound, how does the IC50 read?
The IC50 was at most 10 nM.

How did the IC50 turn out when `COc1cccc(F)c1-c1nccc(Nc2cc(N3CCC[C@H](N)C3)c(C#Cc3cnn(CC(F)(F)F)c3)cn2)n1` [Example 166, (S)-N-(4-(3-aminopiperidin-1-yl)-5-((1-(2,2,2-trifluoroethyl)-1H-pyrazol-4-yl)ethynyl)pyridin-2-yl)-2-(2-fluoro-6-methoxyphenyl)pyrimidin-4-amine hydrochloride] was run?
The IC50 was at most 10 nM.

For `COc1cccc(F)c1-c1nccc(Nc2cc(N3CCC[C@H](O)C3)c(-c3cnn(CC(F)(F)F)c3)cn2)n1` [Example 16, (S)-1-(2-((2-(2-fluoro-6-methoxyphenyl)pyrimidin-4-yl)amino)-5-(1-(2,2,2-trifluoroethyl)-1H-pyrazol-4-yl)pyridin-4-yl)piperidin-3-ol], which IC50 is on record?
Its IC50 is at most 10 nM.

Which IC50 does the source give for `N[C@H]1CCCN(c2cc(Nc3cccc(N4CCOC4=O)n3)ncc2-c2ccc(N3CCOCC3)nc2)C1` [Example 138, (S)-3-(6-((4-(3-aminopiperidin-1-yl)-6′-morpholino-[3,3′-bipyridin]-6-yl)amino)pyridin-2-yl)oxazolidin-2-one hydrochloride] here?
The IC50 was 50 to 100 nM.

With `COc1cccc(F)c1-c1nccc(Nc2cc(N3CCC(CCN(C)C)CC3)c(-c3cnn(C4CCOCC4)c3)cn2)n1` [Example 64, N-(4-(4-(2-(dimethylamino)ethyl)piperidin-1-yl)-5-(1-(tetrahydro-2H-pyran-4-yl)-1H-pyrazol-4-yl)pyridin-2-yl)-2-(2-fluoro-6-methoxyphenyl)pyrimidin-4-amine] as the compound, how does the IC50 read?
Its IC50 is at most 10 nM.

For `COc1cccc(F)c1-c1nc(Nc2cc(N3CCC[C@H](O)C3)c(-c3cnn(C4CCOCC4)c3)cn2)ccc1[N+](=O)[O-]` [Example 41, (3S)-1-(2-((6-(2-fluoro-6-methoxyphenyl)-5-nitropyridin-2-yl)amino)-5-(1-(tetrahydro-2H-pyran-4-yl)-1H-pyrazol-4-yl)pyridin-4-yl)piperidin-3-ol], which IC50 is on record?
Its IC50 is at most 10 nM.

`COc1cccc(F)c1-c1nccc(Nc2cc(N3CCC[C@H](N)C3)c(-c3ccc(C(=O)N4CCN(C)CC4)cc3)cn2)n1` [Example 176, (S)-(4-(4-(3-aminopiperidin-1-yl)-6-((2-(2-fluoro-6-methoxyphenyl)pyrimidin-4-yl)amino)pyridin-3-yl)phenyl)(4-methylpiperazin-1-yl)methanone hydrochloride] was tested. Which IC50 did it give?
The IC50 was at most 10 nM.

How did the IC50 turn out when `COc1cc(F)cc(F)c1-c1nc(Nc2cc(N3CC[C@@H](F)[C@H](N)C3)c(-c3cnn(C(F)F)c3)cn2)ccc1N` [Example 216, N^2-(4-((3R,4R)-3-amino-4-fluoropiperidin-1-yl)-5-(1-(difluoromethyl)-1H-pyrazol-4-yl)pyridin-2-yl)-6-(2,4-difluoro-6-methoxyphenyl)pyridin-2,5-diamine hydrochloride] was run?
The IC50 was at most 10 nM.

Which IC50 does the source give for “(S)-1-(6′-ethoxy-6-((2-(2-fluoro-6-methoxyphenyl)pyrimidin-4-yl)amino)-[3,3′-bipyridin]-4-yl)piperidin-3-ol [Example 56]” here?
The IC50 was 10 to 50 nM.

With `COc1cc(C(=O)N2CC[C@@H](F)C2)cc(F)c1-c1nccc(Nc2cc(N3CCC[C@H](N)C3)c(-c3cnn(C(F)F)c3)cn2)n1` [Example 251, (4-(4-((4-((S)-3-aminopiperidin-1-yl)-5-(1-(difluoromethyl)-1H-pyrazol-4-yl)pyridin-2-yl)amino)pyrimidin-2-yl)-3-fluoro-5-methoxyphenyl)((R)-3-fluoropyrrolidin-1-yl)methanone] as the compound, how does the IC50 read?
Its IC50 is at most 10 nM.

How did the IC50 turn out when `COc1cccc(F)c1-c1nccc(Nc2cc(N3CCC[C@H](C(N)=O)C3)c(-c3cnn(C4CCOCC4)c3)cn2)n1` [Example 50, (S)-1-(2-((2-(2-fluoro-6-methoxyphenyl)pyrimidin-4-yl)amino)-5-(1-(tetrahydro-2H-pyran-4-yl)-1H-pyrazol-4-yl)pyridin-4-yl)piperidin-3-carboxamide] was run?
Its IC50 is over 100 nM.

`N[C@H]1CCCN(c2cc(Nc3ccnc(-c4c(F)cccc4CO)n3)ncc2C#Cc2cnn(C(F)F)c2)C1` [Example 243, (S)-(2-(4-((4-(3-aminopiperidin-1-yl)-5-((1-(difluoromethyl)-1H-pyrazol-4-yl)ethynyl)pyridin-2-yl)amino)pyrimidin-2-yl)-3-fluorophenyl)methanol hydrochloride] was tested. Which IC50 did it give?
The IC50 was at most 10 nM.

`COc1cccc(F)c1-c1nccc(Nc2cc(N3CCC[C@H](O)C3)c(-c3ccc(C(F)(F)F)nc3)cn2)n1` [Example 57, (S)-1-(6-((2-(2-fluoro-6-methoxyphenyl)pyrimidin-4-yl)amino)-6′-(trifluoromethyl)-[3,3′-bipyridin]-4-yl)piperidin-3-ol] was tested. Which IC50 did it give?
The IC50 was 50 to 100 nM.

Which IC50 does the source give for `COc1cccc(F)c1-c1nc(Nc2cc(N3CCC[C@H](O)C3)c(C(=O)N[C@@H]3CC[C@H](O)C3)cn2)ccc1N` [Example 202, 6-((5-amino-6-(2-fluoro-6-methoxyphenyl)pyridin-2-yl)amino)-N-((1R,3S)-3-hydroxycyclopentyl)-4-((S)-3-hydroxypiperidin-1-yl)nicotinamide] here?
The IC50 was at most 10 nM.

How did the IC50 turn out when `COc1cccc(F)c1-c1nccc(Nc2cc(N3CCC[C@H](N)C3)c(-c3ccc(C(=O)N4CCN(CCO)CC4)cc3)cn2)n1` [Example 288, (S)-(4-(4-(3-aminopiperidin-1-yl)-6-((2-(2-fluoro-6-methoxyphenyl)pyrimidin-4-yl)amino)pyridin-3-yl)phenyl)(4-(2-hydroxyethyl)piperazin-1-yl)methanone hydrochloride] was run?
Its IC50 is at most 10 nM.

For `COc1cccc(F)c1-c1nc(Nc2cc(N3CCC[C@H](O)C3)c(-c3cnn(C4CCOCC4)c3)cn2)ccc1C#N` [Example 59, 2-(2-fluoro-6-methoxyphenyl)-6-((4-((S)-3-hydroxypiperidin-1-yl)-5-(1-(tetrahydro-2H-pyran-4-yl)-1H-pyrazol-4-yl)pyridin-2-yl)amino)nicotinonitrile], which IC50 is on record?
Its IC50 is at most 10 nM.

— patent US20260347338A1, “PYRIMIDINE/PYRIDINE DERIVATIVES OR SALTS THEREOF AND PHARMACEUTICAL COMPOSITIONS COMPRISING THE SAME” (YUHAN CORPORATION, priority 2023, published 2026)
